In US9738634B2, “Heterocyclic amide compound and herbicide” (SYNGENTA PARTICIPATIONS AG, priority 2013, dated 2017):

Tests used:
Type in all cases: in vivo
Conditions in all cases: treatment dosage 320 g/ha
green foxtail [1] = assay: Test Example 3: weedkilling efficacy through soil treatment; E: green foxtail
How it was run: (§1)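 Crop and weed responses were judged three weeks after a uniform surface spray of the water-diluted emulsion at the given g/ha rate. Seeds sat beneath about 1.5 cm of sterilized diluvial soil, and boxes stood in a greenhouse at 25 to 30° C.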

black-grass [2] = assay: Test Example 4: weedkilling efficacy by foliar treatment; H: black-grass
How it was run: (§2)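 Seeds are spot-sown into sterilized diluvial soil and covered with about 1.5 cm of soil. After 14 days' greenhouse growth at 25 to 30° C, plants are sprayed on stems and leaves with diluted emulsion at the stated g/ha rate, then scored at 3 weeks.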

Italian ryegrass [3] = assay: Test Example 3: weedkilling efficacy through soil treatment; I: Italian ryegrass
How it was run: as §1

wheat [4] = assay: Test Example 4: foliar treatment, effect on crop; e: wheat
How it was run: as §2

rapeseed [5] = assay: Test Example 3: soil treatment, effect on crop; g: rapeseed
How it was run: as §1

catchweed [6] = assay: Test Example 4: weedkilling efficacy by foliar treatment; O: catchweed
How it was run: as §2

Indian mallow [7] = assay: Test Example 4: weedkilling efficacy by foliar treatment; K: Indian mallow
How it was run: as §2

bulrush [8] = assay: Test Example 1: weedkilling efficacy, preemergent weed treatment in the submerged state; B: bulrush
How it was run: (§3)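 Submerged pre-emergence treatment, water-surface application of compound emulsion at g/ha dosages; 4 cm flooded alluvial soil, weeds sown and 2.5-leaf rice transplanted same day. Rated after 3 weeks, greenhouse.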

corn [9] = assay: Test Example 4: foliar treatment, effect on crop; c: corn
How it was run: as §2

barnyard grass [10] = assay: Test Example 3: weedkilling efficacy through soil treatment; F: barnyard grass
How it was run: as §1

crabgrass [11] = assay: Test Example 3: weedkilling efficacy through soil treatment; D: crabgrass
How it was run: as §1

birds-eye speedwell [12] = assay: Test Example 3: weedkilling efficacy through soil treatment; p: birds-eye speedwell
How it was run: as §1

bulrush [13] = assay: Test Example 2: weedkilling efficacy, growth period weed treatment in the submerged state; B: bulrush
How it was run: (§4)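 Seedlings at 1-2 leaves in 4 cm-deep submerged alluvial soil received emulsion formulations on the water surface, dosed per hectare; effects were judged 3 weeks on.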

directly sown rice [14] = assay: Test Example 4: foliar treatment, effect on crop; b: directly sown rice
How it was run: as §2

directly sown rice [15] = assay: Test Example 3: soil treatment, effect on crop; b: directly sown rice
How it was run: as §1

fig-leafed goosefoot [16] = assay: Test Example 4: weedkilling efficacy by foliar treatment; M: fig-leafed goosefoot
How it was run: as §2

rapeseed [17] = assay: Test Example 4: foliar treatment, effect on crop; g: rapeseed
How it was run: as §2

chickweed [18] = assay: Test Example 3: weedkilling efficacy through soil treatment; N: chickweed
How it was run: as §1

redroot pigweed [19] = assay: Test Example 3: weedkilling efficacy through soil treatment; L: redroot pigweed
How it was run: as §1

common wind-grass [20] = assay: Test Example 4: weedkilling efficacy by foliar treatment; J: common wind-grass
How it was run: as §2

fig-leafed goosefoot [21] = assay: Test Example 3: weedkilling efficacy through soil treatment; M: fig-leafed goosefoot
How it was run: as §1

catchweed [22] = assay: Test Example 3: weedkilling efficacy through soil treatment; O: catchweed
How it was run: as §1

beet [23] = assay: Test Example 4: foliar treatment, effect on crop; f: beet
How it was run: as §2

black-grass [24] = assay: Test Example 3: weedkilling efficacy through soil treatment; H: black-grass
How it was run: as §1

soybean [25] = assay: Test Example 4: foliar treatment, effect on crop; d: soybean
How it was run: as §2

wheat [26] = assay: Test Example 3: soil treatment, effect on crop; e: wheat
How it was run: as §1

redroot pigweed [27] = assay: Test Example 4: weedkilling efficacy by foliar treatment; L: redroot pigweed
How it was run: as §2

common wind-grass [28] = assay: Test Example 3: weedkilling efficacy through soil treatment; J: common wind-grass
How it was run: as §1

barnyard grass [29] = assay: Test Example 4: weedkilling efficacy by foliar treatment; F: barnyard grass
How it was run: as §2

barnyard grass [30] = assay: Test Example 2: weedkilling efficacy, growth period weed treatment in the submerged state; A: barnyard grass
How it was run: as §4

crabgrass [31] = assay: Test Example 4: weedkilling efficacy by foliar treatment; D: crabgrass
How it was run: as §2

chickweed [32] = assay: Test Example 4: weedkilling efficacy by foliar treatment; N: chickweed
How it was run: as §2

beet [33] = assay: Test Example 3: soil treatment, effect on crop; f: beet
How it was run: as §1

corn [34] = assay: Test Example 3: soil treatment, effect on crop; c: corn
How it was run: as §1

soybean [35] = assay: Test Example 3: soil treatment, effect on crop; d: soybean
How it was run: as §1

transplanted rice = assay: Test Example 1: preemergent weed treatment in the submerged state, effect on crop; a: transplanted rice
How it was run: as §3

Italian ryegrass [36] = assay: Test Example 4: weedkilling efficacy by foliar treatment; I: Italian ryegrass
How it was run: as §2

Indian mallow [37] = assay: Test Example 3: weedkilling efficacy through soil treatment; K: Indian mallow
How it was run: as §1

oval-leafed pondweed [38] = assay: Test Example 2: weedkilling efficacy, growth period weed treatment in the submerged state; C: oval-leafed pondweed
How it was run: as §4

birds-eye speedwell [39] = assay: Test Example 4: weedkilling efficacy by foliar treatment; p: birds-eye speedwell
How it was run: as §2

wild oat [40] = assay: Test Example 4: weedkilling efficacy by foliar treatment; G: wild oat
How it was run: as §2

wild oat [41] = assay: Test Example 3: weedkilling efficacy through soil treatment; G: wild oat
How it was run: as §1

barnyard grass [42] = assay: Test Example 1: weedkilling efficacy, preemergent weed treatment in the submerged state; A: barnyard grass
How it was run: as §3

oval-leafed pondweed [43] = assay: Test Example 1: weedkilling efficacy, preemergent weed treatment in the submerged state; C: oval-leafed pondweed
How it was run: as §3

green foxtail [44] = assay: Test Example 4: weedkilling efficacy by foliar treatment; E: green foxtail
How it was run: as §2

Compound: CCc1cc(F)nc(NC(=O)C(C)(C)N2COC(C)=C(c3ccccc3)C2=O)c1 [B-2-39]
- E (green foxtail) weedkilling efficacy grade (green foxtail [1]): 5 (weed kill ratio 90% or more, (practically complete withering))
- H (black-grass) weedkilling efficacy grade (black-grass [2]): 5 (weed kill ratio 90% or more, (practically complete withering))
- I (Italian ryegrass) weedkilling efficacy grade (Italian ryegrass [3]): 5 (weed kill ratio 90% or more, (practically complete withering))
- e (wheat) effect on crop grade (wheat [4]): 0 (weed kill ratio 5% or less (practically no effect))
- g (rapeseed) effect on crop grade (rapeseed [5]): 4 (weed kill ratio 70% or more, less than 90%)
- O (catchweed) weedkilling efficacy grade (catchweed [6]): 4 (weed kill ratio 70% or more, less than 90%)
- K (Indian mallow) weedkilling efficacy grade (Indian mallow [7]): 4 (weed kill ratio 70% or more, less than 90%)
- B (bulrush) weedkilling efficacy grade (bulrush [8]): 5 (weed kill ratio 90% or more, (practically complete withering))
- c (corn) effect on crop grade (corn [9]): 4 (weed kill ratio 70% or more, less than 90%)
- F (barnyard grass) weedkilling efficacy grade (barnyard grass [10]): 5 (weed kill ratio 90% or more, (practically complete withering))
- D (crabgrass) weedkilling efficacy grade (crabgrass [11]): 5 (weed kill ratio 90% or more, (practically complete withering))
- P (birds-eye speedwell) weedkilling efficacy grade (birds-eye speedwell [12]): 5 (weed kill ratio 90% or more, (practically complete withering))
- B (bulrush) weedkilling efficacy grade (bulrush [13]): 5 (weed kill ratio 90% or more, (practically complete withering))
- b (directly sown rice) effect on crop grade (directly sown rice [14]): 4 (weed kill ratio 70% or more, less than 90%)
- b (directly sown rice) effect on crop grade (directly sown rice [15]): 4 (weed kill ratio 70% or more, less than 90%)
- M (fig-leafed goosefoot) weedkilling efficacy grade (fig-leafed goosefoot [16]): 5 (weed kill ratio 90% or more, (practically complete withering))
- g (rapeseed) effect on crop grade (rapeseed [17]): 4 (weed kill ratio 70% or more, less than 90%)
- N (chickweed) weedkilling efficacy grade (chickweed [18]): 4 (weed kill ratio 70% or more, less than 90%)
- L (redroot pigweed) weedkilling efficacy grade (redroot pigweed [19]): 3 (weed kill ratio 40% or more, less than 70%)
- J (common wind-grass) weedkilling efficacy grade (common wind-grass [20]): 5 (weed kill ratio 90% or more, (practically complete withering))
- M (fig-leafed goosefoot) weedkilling efficacy grade (fig-leafed goosefoot [21]): 4 (weed kill ratio 70% or more, less than 90%)
- O (catchweed) weedkilling efficacy grade (catchweed [22]): 4 (weed kill ratio 70% or more, less than 90%)
- f (beet) effect on crop grade (beet [23]): 4 (weed kill ratio 70% or more, less than 90%)
- H (black-grass) weedkilling efficacy grade (black-grass [24]): 5 (weed kill ratio 90% or more, (practically complete withering))
- d (soybean) effect on crop grade (soybean [25]): 4 (weed kill ratio 70% or more, less than 90%)
- e (wheat) effect on crop grade (wheat [26]): 0 (weed kill ratio 5% or less (practically no effect))
- L (redroot pigweed) weedkilling efficacy grade (redroot pigweed [27]): 3 (weed kill ratio 40% or more, less than 70%)
- J (common wind-grass) weedkilling efficacy grade (common wind-grass [28]): 5 (weed kill ratio 90% or more, (practically complete withering))
- F (barnyard grass) weedkilling efficacy grade (barnyard grass [29]): 5 (weed kill ratio 90% or more, (practically complete withering))
- A (barnyard grass) weedkilling efficacy grade (barnyard grass [30]): 5 (weed kill ratio 90% or more, (practically complete withering))
- D (crabgrass) weedkilling efficacy grade (crabgrass [31]): 5 (weed kill ratio 90% or more, (practically complete withering))
- N (chickweed) weedkilling efficacy grade (chickweed [32]): 4 (weed kill ratio 70% or more, less than 90%)
- f (beet) effect on crop grade (beet [33]): 3 (weed kill ratio 40% or more, less than 70%)
- c (corn) effect on crop grade (corn [34]): 0 (weed kill ratio 5% or less (practically no effect))
- d (soybean) effect on crop grade (soybean [35]): 0 (weed kill ratio 5% or less (practically no effect))
- a (transplanted rice) effect on crop grade (transplanted rice): 1 (weed kill ratio 5% or more, less than 20%)
- I (Italian ryegrass) weedkilling efficacy grade (Italian ryegrass [36]): 5 (weed kill ratio 90% or more, (practically complete withering))
- K (Indian mallow) weedkilling efficacy grade (Indian mallow [37]): 2 (weed kill ratio 20% or more, less than 40%)
- C (oval-leafed pondweed) weedkilling efficacy grade (oval-leafed pondweed [38]): 5 (weed kill ratio 90% or more, (practically complete withering))
- P (birds-eye speedwell) weedkilling efficacy grade (birds-eye speedwell [39]): 5 (weed kill ratio 90% or more, (practically complete withering))
- G (wild oat) weedkilling efficacy grade (wild oat [40]): 4 (weed kill ratio 70% or more, less than 90%)
- G (wild oat) weedkilling efficacy grade (wild oat [41]): 5 (weed kill ratio 90% or more, (practically complete withering))
- A (barnyard grass) weedkilling efficacy grade (barnyard grass [42]): 5 (weed kill ratio 90% or more, (practically complete withering))
- C (oval-leafed pondweed) weedkilling efficacy grade (oval-leafed pondweed [43]): 5 (weed kill ratio 90% or more, (practically complete withering))
- E (green foxtail) weedkilling efficacy grade (green foxtail [44]): 5 (weed kill ratio 90% or more, (practically complete withering))
